Assay results published in publication PMC11762167, “G Protein-Coupled Receptor 17 Inhibits Glucagon-like Peptide-1 Secretion via a Gi/o-Dependent Mechanism in Enteroendocrine Cells” (Biomolecules, 2024).

Tests used:
[1] = biological target: hGPR17L (Homo sapiens, UniProt Q13304); experiment: Endpoint cAMP (HTRF) in GLUTag cells expressing hGPR17L; type: cell-based; design: host or cells: GLUTag cells (murine enteroendocrine line), adenoviral transduction; Mean Diff. of cAMP, MDL29,951 vs FSK alone (Tukey): unit not given here; conditions: for Predicted (LS) mean diff.: Fig 2B, Forskolin; for Mean Diff. of cAMP, MDL29,951 vs FSK alone (Tukey): hGPR17L
hGPR17L, sequence (Q13304 whole entry): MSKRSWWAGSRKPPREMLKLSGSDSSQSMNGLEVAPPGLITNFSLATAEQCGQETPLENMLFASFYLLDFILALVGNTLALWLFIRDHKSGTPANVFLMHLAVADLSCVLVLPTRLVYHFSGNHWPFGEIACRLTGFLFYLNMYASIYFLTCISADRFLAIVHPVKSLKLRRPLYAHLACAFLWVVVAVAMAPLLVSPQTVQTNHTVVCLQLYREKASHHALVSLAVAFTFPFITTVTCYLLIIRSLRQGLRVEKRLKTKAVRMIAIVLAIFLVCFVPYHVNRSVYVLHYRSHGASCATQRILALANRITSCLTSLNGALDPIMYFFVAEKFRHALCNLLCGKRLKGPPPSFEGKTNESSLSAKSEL
Description: GLUTag cells were maintained in Dulbecco’s Modified Eagle Medium (DMEM) supplemented with 10% fetal bovine serum and 1% penicillin–streptomycin in a humidified incubator at 37 °C and 5% CO2. For adenovirus transduction, GLUTag cells were seeded into poly-D-lysine coated 96-well plates or 4-chamber slides. The next day, cells were transduced with adenoviruses (100–1250 viral particles per cell at time of seeding) as indicated. After 24–30 h, adenovirus-containing media was changed to serum-free growth media for overnight serum starvation. The following day, GLUTag cells were used for cAMP or calcium signaling assays, GLP-1 secretion assays, or immunostaining and imaging.
Endpoint cAMP measurements were conducted as follows. GLUTag cells were seeded into poly-D-lysine-coated 96-well plates and transduced with adenovirus as specified above and then tested for cAMP signaling. Medium was removed and cells were washed with cAMP stimulation buffer (Hanks’ balanced salt solution (HBSS), 20 mM HEPES, pH 7.4) and then incubated in cAMP stimulation buffer for 30 min at 37 °C and 5% CO2. Cells were then treated for 30 min with agonist and forskolin in the presence of 500 µM IBMX at 37 °C and 5% CO2. Stimulation buffer was then decanted, and cAMP lysis buffer (50 mM HEPES, 10 mM CaCl2, 0.35% Triton X-100, and 500 µM IBMX) was added and shaken at 700 rpm for 1 h. Lysate was transferred to a 384-well plate, and the cAMP levels were quantified using the Cisbio HTRF cAMP (Gi kit; Revvity, Waltham, MA, USA) according to the manufacturer’s protocol.

[2] = system: HEK293 cells; experiment: GloSensor cAMP in HEK293 cells transfected with empty vector (EV); type: cell-based; conditions: 100 μM MDL29,951, 3 µM forskolin
Description: HEK293 cells were maintained and transfected as previously described.
Live-cell, real-time cAMP measurements were performed using Promega (Madison, WI, USA) GloSensor cAMP luminescent biosensor technology. Glosensor cAMP experiments were conducted as previously described in GLUTag cells and HEK293 cells.

## O=C(O)CCc1c(C(=O)O)[nH]c2cc(Cl)cc(Cl)c12 [MDL29,951]
[1]; log [MDL29,951] (M) -5.8 vs. Vehicle, +100 nM YM-254890
  Predicted (LS) mean diff.: -44.26
[1]; log [MDL29,951] (M) -5.8 vs. Vehicle, +100 ng/mL PTX
  Predicted (LS) mean diff.: -1.585
[1]; log [MDL29,951] (M) -5.8 vs. Vehicle, +Vehicle
  Predicted (LS) mean diff.: -32.92
[1]; log [MDL29,951] (M) -6.4 vs. Vehicle, +100 nM YM-254890
  Predicted (LS) mean diff.: -39.29
[1]; log [MDL29,951] (M) -6.4 vs. Vehicle, +100 ng/mL PTX
  Predicted (LS) mean diff.: -7.715
[1]; log [MDL29,951] (M) -6.4 vs. Vehicle, +Vehicle
  Predicted (LS) mean diff.: -33.45
[1]; log [MDL29,951] (M) -7.0 vs. Vehicle, +100 nM YM-254890
  Predicted (LS) mean diff.: -30.32
[1]; log [MDL29,951] (M) -7.0 vs. Vehicle, +100 ng/mL PTX
  Predicted (LS) mean diff.: -2.207
[1]; log [MDL29,951] (M) -7.0 vs. Vehicle, +Vehicle
  Predicted (LS) mean diff.: -27.4
[1]; log [MDL29,951] (M) -7.6 vs. Vehicle, +100 nM YM-254890
  Predicted (LS) mean diff.: -16.56
[1]; log [MDL29,951] (M) -7.6 vs. Vehicle, +100 ng/mL PTX
  Predicted (LS) mean diff.: -4.54
[1]; log [MDL29,951] (M) -7.6 vs. Vehicle, +Vehicle
  Predicted (LS) mean diff.: -8.48
[1]; log [MDL29,951] (M) -8.2 vs. Vehicle, +100 nM YM-254890
  Predicted (LS) mean diff.: -9.253
[1]; log [MDL29,951] (M) -8.2 vs. Vehicle, +100 ng/mL PTX
  Predicted (LS) mean diff.: 0.26
[1]; log [MDL29,951] (M) -8.2 vs. Vehicle, +Vehicle
  Predicted (LS) mean diff.: 3.753
[1]; log [MDL29,951] (M) -8.8 vs. Vehicle, +100 nM YM-254890
  Predicted (LS) mean diff.: -3.55
[1]; log [MDL29,951] (M) -8.8 vs. Vehicle, +100 ng/mL PTX
  Predicted (LS) mean diff.: -5.335
[1]; log [MDL29,951] (M) -8.8 vs. Vehicle, +Vehicle
  Predicted (LS) mean diff.: 6.603
[1]; log [MDL29,951] (M) -9.4 vs. Vehicle, +100 nM YM-254890
  Predicted (LS) mean diff.: 1.64
[1]; log [MDL29,951] (M) -9.4 vs. Vehicle, +100 ng/mL PTX
  Predicted (LS) mean diff.: 2.945
[1]; log [MDL29,951] (M) -9.4 vs. Vehicle, +Vehicle
  Predicted (LS) mean diff.: 8.423
[1]; at 390 nM MDL29,951, 10 µM forskolin
  maximum inhibition of forskolin-stimulated cAMP: 37 ± 5.1%
[1]; log [MDL29,951] (M) -4.0
  Mean Diff. of cAMP, MDL29,951 vs FSK alone (Tukey): -0.306
[1]; log [MDL29,951] (M) -4.6
  Mean Diff. of cAMP, MDL29,951 vs FSK alone (Tukey): -0.593
[1]; log [MDL29,951] (M) -5.2
  Mean Diff. of cAMP, MDL29,951 vs FSK alone (Tukey): -1.138
[1]; log [MDL29,951] (M) -5.8
  Mean Diff. of cAMP, MDL29,951 vs FSK alone (Tukey): -1.598
[1]; log [MDL29,951] (M) -6.4
  Mean Diff. of cAMP, MDL29,951 vs FSK alone (Tukey): -1.654
[1]; log [MDL29,951] (M) -7.0
  Mean Diff. of cAMP, MDL29,951 vs FSK alone (Tukey): -1.376
[1]; log [MDL29,951] (M) -7.6
  Mean Diff. of cAMP, MDL29,951 vs FSK alone (Tukey): -0.7263
[1]; log [MDL29,951] (M) -8.2
  Mean Diff. of cAMP, MDL29,951 vs FSK alone (Tukey): -0.237
[1]; log [MDL29,951] (M) -8.8
  Mean Diff. of cAMP, MDL29,951 vs FSK alone (Tukey): -0.04325
[1]; log [MDL29,951] (M) -9.4
  Mean Diff. of cAMP, MDL29,951 vs FSK alone (Tukey): -0.0985
[1]; hGPR17L-WT (1250), log [MDL29,951] (M) -4.0 vs. Vehicle, Forskolin stimulation, Figure 4B
  Mean Diff. (Tukey's multiple comparisons test), cAMP, Row 10 vs. Row 11: -9.193
[1]; hGPR17L-WT (1250), log [MDL29,951] (M) -4.6 vs. Vehicle, Forskolin stimulation, Figure 4B
  Mean Diff. (Tukey's multiple comparisons test), cAMP, Row 9 vs. Row 11: -17.14
[1]; hGPR17L-WT (1250), log [MDL29,951] (M) -5.2 vs. Vehicle, Forskolin stimulation, Figure 4B
  Mean Diff. (Tukey's multiple comparisons test), cAMP, Row 8 vs. Row 11: -27.93
[1]; hGPR17L-WT (1250), log [MDL29,951] (M) -5.8 vs. Vehicle, Forskolin stimulation, Figure 4B
  Mean Diff. (Tukey's multiple comparisons test), cAMP, Row 7 vs. Row 11: -39.19
[1]; hGPR17L-WT (1250), log [MDL29,951] (M) -6.4 vs. Vehicle, Forskolin stimulation, Figure 4B
  Mean Diff. (Tukey's multiple comparisons test), cAMP, Row 6 vs. Row 11: -41.54
[1]; hGPR17L-WT (1250), log [MDL29,951] (M) -7.0 vs. Vehicle, Forskolin stimulation, Figure 4B
  Mean Diff. (Tukey's multiple comparisons test), cAMP, Row 5 vs. Row 11: -35.32
[1]; hGPR17L-WT (1250), log [MDL29,951] (M) -7.6 vs. Vehicle, Forskolin stimulation, Figure 4B
  Mean Diff. (Tukey's multiple comparisons test), cAMP, Row 4 vs. Row 11: -21.64
[1]; hGPR17L-WT (1250), log [MDL29,951] (M) -8.2 vs. Vehicle, Forskolin stimulation, Figure 4B
  Mean Diff. (Tukey's multiple comparisons test), cAMP, Row 3 vs. Row 11: -11.12
[1]; hGPR17L-WT (1250), log [MDL29,951] (M) -8.8 vs. Vehicle, Forskolin stimulation, Figure 4B
  Mean Diff. (Tukey's multiple comparisons test), cAMP, Row 2 vs. Row 11: -5.06
[1]; hGPR17L-WT (1250), log [MDL29,951] (M) -9.4 vs. Vehicle, Forskolin stimulation, Figure 4B
  Mean Diff. (Tukey's multiple comparisons test), cAMP, Row 1 vs. Row 11: -7.193
[2]
  cAMP Effect of 100 μM MDL (% Inhibition): 7.5±3.2%
